# Test results reported in patent US20260325465A1, “SHP-1 INHIBITORS FOR TREATING CANCER” (MDX MANAGEMENT LLC, priority 2022, published 2026).
# “Also recorded” adds a separate entry of the source.
# Tests used:
# solid tumors = experiment: Intermittent period after TPI-1 combined therapy in tumors; format: in vivo, murine; settings: TPI-1 combined with TLR agonists or RT
# Text: Furthermore, these analyses of the TME immune landscape changes following TPI-1 combined therapies informed our design of the pulse-intermittent SHP-1 inhibition strategy for metastatic solid tumors. […] Along with macrophage reduction, tumor-associated SHP-1 activities also dwindled, a change that ousted the necessity of continuous TPI-1 application. This “intermittent” period lasted 3-6 days, a length dependent on TPI-1 and TLR agonists/RT dosages, as well as tumor type and stage prior to treatment. […] Consistent with these changes, the tumors after the intermittent period were reverted to growth, unless another cycle of TPI-1 combined therapy was applied, which were again effectively suppressing tumors.
# [1] = tested on: THP-1 leukemia cells and HT29 colon cancer cells; experiment: Phagocytosis by human monocytes-derived macrophages; format: cell-based; settings: 1 μg/ml
# Method: (§1) FIGS. 2A-2G depict that the inhibition of SHP-1 enhances macrophage proinflammatory response, antigen presentation and phagocytosis in a tumor milieu. FIG. 2A and FIG. 2B depict that SHP-1 activity in macrophages is triggered by proinflammatory stimulation and the extracellular cancer cell ligation (“touching”) of macrophages (green bar in FIG. 2A). […] The SHP-2 inhibitor SHP099 (1 μg/ml) was used in assays. FIG. 2C depicts the inhibition of SHP-1 by TPI-1 dose-dependently recovers IFNγ/LPS-induced activation of STAT1 (p-STAT1) and Erk1/2 (p-Erk1/2) de-activated by SHP-1 (red line). FIG. 2D and FIG. 2E depict that the inhibition of SHP-1 in macrophages by TPI-1 enhances production of proinflammatory cytokines (FIG. 2D) and expression of immunogenic antigen presentation machinery (FIG. 2E) by IFNγ/LPS in a tumor milieu. […] The SHP-1 and SHP-2 inhibitors TPI-1 and SHP099, respectively, was used at 1 μg/ml in assays.
# p-STAT1 and p-Erk1/2 = experiment: STAT1 and Erk1/2 phosphorylation in macrophages with cancer cell ligation; format: cell-based; settings: IFNγ/LPS
# Method: as §1
# Macrophages with high SHP-1 activity in a tumor milieu diminish production of proinflammatory cytokines but produce high IL-10 (see FIG. 2D, blue bar) under stimulation of IFNγ/LPS. This reinforcement of immunosuppression was reversed by SHP-1 inhibition. […]
# [2] = tested on: PTP/SHP-1 activity in KPC tumor; experiment: PTP/SHP-1 activity in KPC tumor in vivo; design: species or system murine; settings: with αTLR, cytokines, STING activator, RT, AZA or αPD-L1
# [3] = tested on: MC38 colorectal carcinoma; experiment: Study-2: multi-lesion MC38 colorectal carcinoma, efficacy; format: in vivo, mice; settings: intermittent iSHP-1 with αTLR, or αTLR and αPD-L1
# Method: FIGS. 12A-12D depict that pulse-intermittent inhibition of SHP-1 (iSHP-1) combined with TLR agonists (αTLR) and/or anti-PD-L1 checkpoint inhibitor effectively treat multi-lesion MC38 colorectal carcinoma. FIG. 12A depicts the treatment scheme. Mice with bilateral MC38 tumors (s.c.) were treated for two days with TPI-1 and various combinations via i.p. or s.c. A 5-day intermittent period was given before the 2nd cycle of treatments to mice that had residue tumors. FIGS. 12B and 12C depict tumor control efficacies measured by tumor volume changes (FIG. 12B) and TME reprogramming, indicating increases in tumor killing immune populations while reduction of immunosuppression. FIG. 12D depicts acute adverse toxicity, measured by body weight, proteinuria, serum ALT level and splenomegaly.
# [4] = tested on: MC38 colorectal carcinoma; experiment: αTLR-induced inflammation in MC38 tumor-bearing mice with or without TPI-1; format: in vivo, C57BL6 mice
# Text: FIGS. 17A-17C depict inhibition of SHP-1 (iShp1) abrogates tumor-imposed immune suppression under pro-inflammatory challenges. FIG. 17A depicts neutrophil infiltration in different organs measured at various time point following αTLR challenge. FIG. 17B depicts neutrophil infiltration in tumor tissues in mice treated with αTLR plus TPI-1. FIG. 17C depicts the phenotype of intratumoral macrophages.
# MC38 colorectal carcinoma was established (via subcutaneous administration) in syngeneic C57BL6 mice. After tumor sizes reached more than 200 mm^3, the tumor-bearing mice were induced systemic inflammatory condition by TLR agonists (αTLR, CpG/PolyIC/R848, each 25 μg) administrated via subcutaneous administration at the location distal from MC38 tumor. A group of mice were concurrently administrated with TPI-1 (1 mg/kg) via subcutaneous administration to achieve systemic SHP-1 inhibition.
# KPC pancreatic cancer = experiment: Study-3: iSHP-1 with RT and αPD-L1, KPC pancreatic cancer; format: in vivo, mice; settings: TPI-1 3 or 5 mg/kg i.p. every 3 days, right flank RT 8Gy-4Gy-2Gy, αPD-L1 100 μg
# Method: FIGS. 13A-13E depict pulse-intermittent SHP-1 inhibition (iSHP-1) combination with RT and αPD-L1 treating pancreatic cancer and lung cancer. FIG. 13A depicts experimental schemes. […] Concomitantly, the tumor at the right flank was treated with 8Gy X-ray radiation (RT). After two days of intermittent period, mice on day 4 were treated with the 2nd cycle TPI-1 (i.p.) of the same dose while RT reduced to 4Gy applied to the right flank tumor. The 3rd cycle (day 7) iSHP-1 combination with RT reduced to 2Gy. Anti-PD-L1 Ab (100 μg, i.p.) was given a day following TPI-1 plus RT. FIG. 13B depicts luminescent image tracing KPC-luc and LLC-luc tumor changes post treatment. FIG. 13C depicts record of tumor volume changes and animal survival up to post-treatment 45 days.
# Modalities & Dosing Strategy: i) iSHP-1—TPI-1, 3 or 5 mg/kg, i.p., 1× every 3 days. ii) Tumor focal RT: 8Gy-4Gy-2Gy, given to right flank simultaneously with iSHP-1. iii) αPD-L1: 100 μg, i.p., given a day after iSHP-1 plus RT
compound,measurement,setting,value
O=C1C=CC(=O)C(c2cc(Cl)ccc2Cl)=C1 [TPI-1],length of intermittent period with reduced macrophages and tumor growth restraint,solid tumors,3 to 6 days
same,phagocytosis of cancer cells,[1],promotes proinflammatory-activated macrophages for phagocytosis of cancer cells
same,STAT-1 and Erk1/2 phosphorylation,p-STAT1 and p-Erk1/2,dose-dependently released cancer cell-imposed inhibition
same,treatment-induced PTP/SHP-1 activity abated,[2],abated
same,"tumor regression, combination",[3],effectively regressed multiple lesions of MC38 colorectal cancer
same,TNFα and IL12 expression of intratumoral macrophages,[4]; TPI-1 1 mg/kg s.c. with αTLR,increased TNFα and IL12 expression
same,neutrophil infiltration in tumor,"[4]; TPI-1 1 mg/kg s.c. with αTLR (CpG/PolyIC/R848, each 25 μg), 1 mg/kg",enabled neutrophil infiltration upon αTLR; also recorded: increased neutrophil infiltration in tumor tissues
same,tumor elimination incl. distal lesions,KPC pancreatic cancer,effectively eliminating or repressing KPC pancreatic cancer and LLC lung cancer along with distal lesions
